Data on 1 molecule can be found in patent US20070212412A1, “STABLE SOLID FORMULATION OF SERTINDOLE” (H. Lundbeck A/S, priority 2005, published 2007).

The nature of data set [1]: Light stability study of film-coated sertindole tablets (HPLC degradation products). The class given is physicochemical. Conditions: film-coated tablets with white film-coating layer containing titanium dioxide, 2-4% film-layer relative to tablet core weight. An excerpt: 10 tablets of each sample were placed in a light cabinet (Heraeus Suntest CPS+) and were exposed to light providing an overall illumination of not less than 1.2 million lux hours, and an integrated near ultraviolet energy of not less than 200 watt hours/m^2. The tablets were placed directly in petri dishes in a single layer. […] The dark control was placed beside the sample and was protected against light, wrapped in aluminium foil. After light exposure the tablets (sample and dark control) were analysed for degradation products by HPLC analysis.
The samples of 10 tablets were disintegrated by the means of 0.1 M acetic acid. Next acetonitrile was added for extraction and subsequently the samples were made to volume with methanol/water (50/50). Final concentration: 0.4 mg/ml.
Samples from the light stability studies were analysed by HPLC.
Reversed phase chromatography was performed using a LiChrospher 100 RP-8, 5 μm, 250×4 mm ID with pre-column: LiChrospher 100 RP-8, 5 μm.
The mobile phase consisted of Tetrahydrofurane/acetonitrile/25 mM phosphate buffer pH 7.2 (7/43/50). […]
Quantification of the degradation products was done from area %, using the normalization factor 0.9 for Lu 26-115 (1-(2-(4-(5-Chloro-1-(4-fluorophenyl)-1H-indol-3-yl)-1-piperidinyl-1-oxide)ethyl)-2-imidazolidinone) and the normalization factor 1.0 for other impurities.

The next data set concerns serotonin 5-HT2. Conditions: cited from earlier work.
The target in the next data set is dopamine D2 (Homo sapiens, UniProt P14416). Conditions: cited from earlier work.
Chain of dopamine D2 (P14416 whole entry): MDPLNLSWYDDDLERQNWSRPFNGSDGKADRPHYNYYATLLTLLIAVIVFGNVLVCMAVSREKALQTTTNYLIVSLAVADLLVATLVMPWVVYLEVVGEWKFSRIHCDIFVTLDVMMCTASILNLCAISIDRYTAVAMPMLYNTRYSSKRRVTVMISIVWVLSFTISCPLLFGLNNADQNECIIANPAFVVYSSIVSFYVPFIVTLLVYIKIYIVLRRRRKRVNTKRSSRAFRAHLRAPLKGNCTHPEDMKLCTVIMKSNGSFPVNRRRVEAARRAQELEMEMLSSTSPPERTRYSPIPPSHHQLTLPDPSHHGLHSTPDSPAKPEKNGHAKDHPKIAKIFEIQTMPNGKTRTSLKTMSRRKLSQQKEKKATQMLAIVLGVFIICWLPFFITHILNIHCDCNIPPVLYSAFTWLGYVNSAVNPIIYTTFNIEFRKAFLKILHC
The next data set concerns α1-adrenergic receptors. Conditions: cited from earlier work.
The conditions of data set [2]: clinical development programme; cited from earlier work.

With `O=C1NCCN1CCN1CCC(c2cn(-c3ccc(F)cc3)c3ccc(Cl)cc23)CC1` [Sertindole], in data set [1], the light sensitivity result was “undergoes a light-induced degradation process”. In the data set on serotonin 5-HT2, the “affinity for serotonin 5-HT2” value is “high affinity”. In addition, the “affinity for dopamine D2” value at dopamine D2 is “high affinity”. Further, the “affinity for α1-adrenergic receptors” value with α1-adrenergic receptors is “high affinity”. Further, in data set [2], the “effect on symptoms of schizophrenia” value was “effect against both positive and negative symptoms of schizophrenia”; the “incidence of extrapyramidal side effects” value is on record as “placebo-level incidence”; the tolerability entry was “well-tolerated”.
